A short description of data set [1]: in vivo. As to conditions: nude, mouse, plasma, iv, 1 mg/kg.
The nature of data set [2]: in vivo. The conditions noted are these: Sprague-Dawley, rat, plasma, iv, 1 mg/kg.
The subject of data set [3] is Rattus norvegicus. The data set can be described thus: Unbound plasma clearance in Sprague-Dawley rat at 1 mg/kg, iv. Also on record: dose 1 mg/kg, route intravenous. As to conditions: in vivo. The format is ADME, organism-based.
A short description of data set [4]: Apparent permeability across apical to basolateral side in MDCK cells. The format is ADME, cell-based, Canis lupus familiaris. The conditions noted are these: dog.
The nature of data set [5]: Oral bioavailability in Beagle dog at 2 mg/kg. The conditions noted are these: in vivo. The format is ADME, organism-based, Canis lupus familiaris.
The nature of data set [6]: Oral bioavailability in nude mouse at 25 mg/kg. The format is ADME, organism-based. The conditions noted are these: in vivo.
A short description of data set [7]: Plasma clearance in Beagle dog at 1 mg/kg, iv. On the set-up: dose 1 mg/kg, route intravenous. The format is ADME, organism-based, Canis lupus familiaris.
A short description of data set [8]: Oral bioavailability in Sprague-Dawley rat at 5 mg/kg. As to conditions: in vivo. The format is ADME, organism-based.
Data set [9] is described as follows: Plasma clearance in dog. The format is ADME, organism-based, Canis lupus familiaris.

`CC(C)n1ncnc1-c1nc2c(s1)CCOc1cc(C3CN(C(C)(C)C(N)=O)C3)ccc1-2`: the figures for the clearance in data set [1] and in data set [2] were 104 mL/min/kg and 55 mL/min/kg, respectively.

On to `CC(C)n1c(-c2nc3c(s2)CCOc2cc(-c4cnn(CC(C)(C)O)c4)ccc2-3)n[nH]c1=O`, for which the clearance in data set [1] stood at 22 mL/min/kg; in [2], 84 mL/min/kg.

On to `CC(C)n1nc(N)nc1-c1nc2c(s1)CCOc1cc(-c3cnn(CC(C)(C)O)c3)ccc1-2`, for which the results for the clearance in data set [1] and in data set [2] were 4 mL/min/kg and 55 mL/min/kg, respectively.

As to `CC(C)n1ncnc1-c1nc2c(s1)CCOc1cc(C3CN(C(=O)C(C)(C)N)C3)ccc1-2`, in data set [3], the CL free is 1153 mL/min/kg. Besides, in data set [2], the clearance was 60 mL/min/kg.

Consider `CC(C)n1ncnc1-c1nc2c(s1)CCOc1cc(C3CN(C[C@H](O)CO)C3)ccc1-2`, for which the clearance in [1] came to 165 mL/min/kg; in [2], 57 mL/min/kg.

Regarding `CC(C)n1ncnc1-c1nc2c(s1)CCOc1cc(-c3cnn(CC(C)(C)O)c3)ccc1-2`, the clearance in data set [1] amounted to 3.1 mL/min/kg; in data set [2] it was 6.8 mL/min/kg.

Consider `CC(C)n1ncnc1-c1nc2c(s1)CCOc1cc(-c3cnn(CCO)c3)ccc1-2`, for which, in data set [4], the Papp A→B amounted to 16 ×10⁻⁶ cm/s. Besides, the bioavailability in data set [5] worked out at 22%; in [6] it was 110%; in data set [8] it was 83%. Further, the figures for the clearance in [7], in data set [1] and in data set [2] were 14 mL/min/kg, 9.5 mL/min/kg and 5.4 mL/min/kg, respectively.

On to `Cc1nc(-c2nc3c(s2)CCOc2cc(-c4cnn(CCO)c4)ccc2-3)n(C(C)C)n1`, for which the clearance was 2.2 mL/min/kg in data set [1] and 1.9 mL/min/kg in data set [2].

In [9], `CC(C)n1ncnc1-c1cc2c(s1)-c1ccc(C(N)=O)cc1OCC2` showed a clearance of 100 mL/min/kg.

For the compound `CC(C)n1ncnc1-c1nc2c(s1)CCOc1cc(-c3cnn(CS(C)(=O)=O)c3)ccc1-2`, the clearance in [1] was 3.2 mL/min/kg; in [2], 6.1 mL/min/kg.

Regarding `CC(C)n1ncnc1-c1nc2c(s1)CCOc1cc(C3CN(CCO)C3)ccc1-2`, the clearance was 132 mL/min/kg in [1] and 128 mL/min/kg in [2].

In data set [3], `CC(C)n1ncnc1-c1nc2c(s1)CCOc1cc(-c3cnn(C(C)(C)C(N)=O)c3)ccc1-2` had a CL free of 625 mL/min/kg. Also, the clearance came to 13.4 mL/min/kg in [1] and 10 mL/min/kg in data set [2].

`CC(C)n1ncnc1-c1nc2c(s1)CCOc1cc(C3CN(CC(C)(C)O)C3)ccc1-2`: the clearance amounted to 170 mL/min/kg in data set [1] and 163 mL/min/kg in data set [2].

Source of the values: ChEMBL document CHEMBL2380305, “Discovery of thiazolobenzoxepin PI3-kinase inhibitors that spare the PI3-kinase β isoform” (Bioorg Med Chem Lett, 2013).
